Assay results reported in PMC11076983, “Baicalin and baicalein from Scutellaria baicalensis Georgi alleviate aberrant neuronal suppression mediated by GABA from reactive astrocytes” (CNS Neuroscience & Therapeutics, 2024).
Read-outs that look alike come from different tables or passages of the source.

Target: T1, monoamine oxidase B (MAO-B) (Homo sapiens, UniProt P27338)
T1 construct: gene MAOB; Human recombinant MAO-B (Sigma, M7441)
T1 sequence (P27338 2-520): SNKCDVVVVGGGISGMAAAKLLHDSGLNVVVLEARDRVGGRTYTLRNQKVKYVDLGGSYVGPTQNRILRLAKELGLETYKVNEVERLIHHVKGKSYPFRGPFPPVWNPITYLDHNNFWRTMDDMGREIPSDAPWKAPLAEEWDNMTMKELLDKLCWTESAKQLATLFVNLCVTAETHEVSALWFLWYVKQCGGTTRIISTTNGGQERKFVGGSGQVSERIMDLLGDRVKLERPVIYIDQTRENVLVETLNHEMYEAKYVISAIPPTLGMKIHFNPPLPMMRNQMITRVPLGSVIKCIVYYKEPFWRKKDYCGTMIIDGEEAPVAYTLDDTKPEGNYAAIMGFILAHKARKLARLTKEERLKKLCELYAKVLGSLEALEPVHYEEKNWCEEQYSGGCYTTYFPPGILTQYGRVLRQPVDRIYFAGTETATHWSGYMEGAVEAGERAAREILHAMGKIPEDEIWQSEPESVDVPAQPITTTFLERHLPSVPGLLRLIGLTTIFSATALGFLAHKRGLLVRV
Assay: in vitro MAO-B enzyme activity assay with recombinant human enzyme
Type: biochemical

IC50 (read-out: IC50) [µM] | SMILES | IC50 [µM]
 | O=c1cc(-c2ccccc2)oc2cc(O)c(O)c(O)c12 [baicalein] | 21
6.26 | O=C(O)[C@H]1O[C@@H](Oc2cc3oc(-c4ccccc4)cc(=O)c3c(O)c2O)[C@H](O)[C@@H](O)[C@@H]1O [baicalin] | 
 | COc1c(O)cc(O)c2c(=O)cc(-c3ccccc3)oc12 [wogonin] | 79.2
